From a melting point compilation (Tetko et al.)

Work on `O=C(O)c1ccccc1OCc1cccc(Br)c1` yielded a melting point of 108 to 110 °C.

`CC(=O)CC(=O)Nc1cccc(C)c1` showed a melting point of 57 to 59 °C.

For `CC(C)Cn1cnc(S(N)(=O)=O)c1`, the melting point was 144 to 146 °C.

Compound `CC(=O)Oc1cccc(C(=O)O)c1` has a melting point of 131 to 134 °C.

For `O=C(O)C1CCCn2ccnc21` (centres undefined), the melting point was 156 to 158 °C.

For `COc1ccc(F)cc1[N+](=O)[O-]`, the melting point was 62 to 64 °C.

With `COc1ccc(S(=O)(=O)Nc2ccccc2C(=O)O)cc1` the melting point was 183 to 185 °C.

`Cc1ccnc(N)c1N` gave a melting point of 111 to 113 °C.

For `O=C(NC1CCCCCC1)c1ccco1`, the melting point was 99 to 101 °C.

`COC(=O)Cc1c(C)n[nH]c1C` showed a melting point of 51 to 55 °C.

`Cn1c(O)nnc1S` gave a melting point of 216 to 218 °C.

Work on `O=C(O)C(=O)NNc1ccc(Cl)cc1Cl` yielded a melting point of 169 to 171 °C.

For `O=C(O)COc1ccc(S(=O)(=O)Cl)cc1Cl`, the melting point was 123 to 125 °C.

`Nc1ccc(Oc2cccc3cccnc23)cc1` showed a melting point of 203 to 205 °C.

In the case of `COc1cccc(CNc2ccc3[nH]c(=O)[nH]c3c2)c1`, the melting point is reported as 190 to 192 °C.

In the case of `CCNC(=O)Nc1cc(F)ccc1N`, the melting point is reported as 147 to 149 °C.

Work on `CCCn1c(=O)[nH]c2ccccc21` yielded a melting point of 96 to 100 °C.

`Cc1c(C#N)c(NC(=O)CCl)n(Cc2ccc(F)cc2)c1C` showed a melting point of 279 to 281 °C.

Work on `CS(=O)(=O)NC1CCNCC1` yielded a melting point of 143 to 145 °C.

With `O=C1CC(N2CCCC2)C(=O)N1` (centres undefined) the melting point was 123 to 125 °C.

With `O=C(O)C1(S(=O)(=O)c2ccc(Cl)cc2)CC1` the melting point was 185 to 187 °C.

`Cc1ccc(Oc2ccc(N)cc2Cl)c(Br)c1` showed a melting point of 110 to 112 °C.

`O=[N+]([O-])c1[nH]cnc1-c1ccc(F)cc1` gave a melting point of 290 to 292 °C.

Compound `COc1ccc(Cl)cc1NC(=O)CC(=O)Nc1cc(Cl)ccc1OC` has a melting point of 98 to 101 °C.

In the case of `Nc1ccc(Cl)cc1-c1nc2ccccc2[nH]1`, the melting point is reported as 236 to 238 °C.

In the case of `CCOC(=O)C(=O)C=Cc1ccsc1`, the melting point is reported as 53 to 55 °C.

For `Cc1oc(C(=O)O)cc1S(=O)(=O)N1CCCC1`, the melting point was 219 to 221 °C.

`O=C(O)CCn1c(=O)oc2cc(S(=O)(=O)N3CCCC3)ccc21` showed a melting point of 190 to 192 °C.

Work on `COc1cc2c(c(OC)c1OC)CCNC(=O)C2` yielded a melting point of 176 to 178 °C.

`CCc1noc2ncc(C(=O)O)cc12` gave a melting point of 193 to 195 °C.

Compound `CC(=O)Nc1ccc(NC(=O)CC#N)cc1` has a melting point of 305 to 307 °C.

With `CCOC(=O)c1ccc(N2CC(N)C2)nc1` the melting point was 72 to 74 °C.

In the case of `COc1cc(C)c(CSCC(=O)O)cc1OC`, the melting point is reported as 63 to 65 °C.

`O=C(O)CCc1c(-c2ccc(F)cc2)[nH]c2ccc(F)cc12` showed a melting point of 131 to 135 °C.

Work on `COC(=O)CNc1ccc(Br)cn1` yielded a melting point of 105 to 107 °C.

With `O=C(O)c1ccc(NC(=O)c2cccc(Br)c2)cc1` the melting point was 271 to 273 °C.

Work on `Cc1cc(S(=O)(=O)Cl)cc(C(=O)O)c1F` yielded a melting point of 169 to 171 °C.

In the case of `CC(C)(C)OC(=O)NC1(CN)CCCCCC1`, the melting point is reported as 77 to 79 °C.

For `COc1cc(/C(C)=N\O)ccc1OCc1ccccc1`, the melting point was 117 to 119 °C.

`CS(=O)(=O)c1ccc(NC(N)=O)cc1` showed a melting point of 224 to 226 °C.

`CCOc1ccc(C(=O)O)cn1` gave a melting point of 184 to 186 °C.

Work on `CCOC(=O)/C(C#N)=C\Nc1ccc(C)cc1` yielded a melting point of 134 to 136 °C.

For `Cc1nn(CC(=O)OC(C)C)c(C)c1C=O`, the melting point was 104 to 106 °C.

Work on `CC(C)(C)OC(=O)N1CCNc2ccccc2C1` yielded a melting point of 69 to 71 °C.

For `CC1(Br)CS(=O)(=O)CC1Br` (centres undefined), the melting point was 126 to 128 °C.

`Cn1cnnc1CN` gave a melting point of 32 to 34 °C.

Work on `OCC1Cc2cc(Br)ccc2O1` (centres undefined) yielded a melting point of 63 to 65 °C.

With `N#Cc1ccc(Nc2cccc(C(=O)O)c2)cc1` the melting point was 247 to 249 °C.

Work on `COCCn1c(C(=O)O)cc2ccccc21` yielded a melting point of 139 to 141 °C.

For `COc1ccc(NS(=O)(=O)c2ccc(N3CCCCC3)c(N)c2)cc1`, the melting point was 111 to 113 °C.

`Clc1cc[nH]n1` showed a melting point of 68 to 70 °C.

Compound `FC(F)Sc1ccc(Nc2nnc(S)s2)cc1` has a melting point of 188 to 190 °C.

For `O=C(O)c1cccc(CN2CCCC2)c1`, the melting point was 196 to 198 °C.

Work on `COc1cccc(C(=O)NCC(=O)O)c1` yielded a melting point of 78 to 80 °C.

For `NC(=O)c1cccc(CS)n1`, the melting point was 61 to 63 °C.

With `O=C(CCl)c1cc2c3c(c1)CC(=O)N3CCC2` the melting point was 159 to 161 °C.

Work on `O=C(CCl)NCCc1ccc2c(c1)OCCO2` yielded a melting point of 72 to 76 °C.

With `O=C(O)C1CC1c1cccc(Cl)c1` (centres undefined) the melting point was 89 to 91 °C.

Work on `CCOc1cc(C=O)ccc1OCc1c(F)cccc1Cl` yielded a melting point of 111 to 113 °C.

`COC(=O)c1nonc1N` showed a melting point of 115 to 117 °C.

Work on `Cc1ccc(OCCC(=O)O)c(Br)c1` yielded a melting point of 119 to 121 °C.

For `Ic1n[nH]c2ccsc12`, the melting point was 174 to 176 °C.

With `Nc1ccc2cccc(Br)c2n1` the melting point was 152 to 154 °C.

For `O=C(Nc1cccnc1)c1ccc(O)cc1`, the melting point was 273 to 275 °C.

`SC1=Nc2ccccc2CS1` gave a melting point of 149 to 151 °C.

Compound `CCOC(=O)c1cncnc1O` has a melting point of 179 to 181 °C.

For `CS(=O)(=O)CCS(N)(=O)=O`, the melting point was 149 to 151 °C.

`O=C1C=CC(=O)N1c1ccc2ccccc2c1` gave a melting point of 120 to 124 °C.

For `CN1C(=O)CC(O)C1=O` (centres undefined), the melting point was 82 to 87 °C.

For `O=c1[nH]nnn1-c1cccs1`, the melting point was 151 to 153 °C.

`NS(=O)(=O)c1ccccn1` gave a melting point of 141 to 143 °C.

Work on `Cc1cc(N)nn1-c1ccccc1` yielded a melting point of 79 to 81 °C.

Work on `CC(C)C(Br)C(=O)N1CCc2sccc2C1` (centres undefined) yielded a melting point of 84 to 86 °C.

Work on `NCCCNc1ccc(C(F)(F)F)cn1` yielded a melting point of 48 to 50 °C.

`Nc1cc(C2CCOCC2)no1` gave a melting point of 159 to 161 °C.

For `O=Cc1cc2ccccc2nc1N1CCCCC1`, the melting point was 118 to 120 °C.

With `N#CCC(=O)c1cccc(Br)c1` the melting point was 94 to 96 °C.

`CC(=O)Nc1ccc(N=C=S)cc1` gave a melting point of 199 to 201 °C.

In the case of `Nc1cc(C(F)(F)F)ccc1C1CCNCC1`, the melting point is reported as 86 to 88 °C.

With `COc1ccc(OCCC(=O)O)cc1` the melting point was 104 to 106 °C.

With `Nc1ccccc1C(=O)NCCO` the melting point was 92 to 94 °C.

In the case of `O=C(O)C1(c2ccc(O)cc2)CCOCC1`, the melting point is reported as 170 to 172 °C.

For `CCS(=O)(=O)N1CCc2cc(C(=O)CCl)ccc21`, the melting point was 231 to 233 °C.

`CC(=O)Nc1cc(N)ccc1Cl` showed a melting point of 200 to 202 °C.

Compound `COCCCn1c(S)nc2ccccc2c1=O` has a melting point of 180 to 182 °C.

`Nc1nc(CCl)nc2sc3c(c12)CCCCC3` showed a melting point of 174 to 176 °C.

`Nc1ccc(C(=O)Nc2ccc3cn[nH]c3c2)cc1` gave a melting point of 272 to 274 °C.

`Cc1nsc(Nc2ccccc2)c1C#N` gave a melting point of 172 to 174 °C.

With `Cc1[nH]c2ccc(F)cc2c1C=O` the melting point was 215 to 217 °C.

In the case of `O=Cc1cn(-c2ccccc2)nc1-c1ccc(-c2nn(-c3ccccc3)cc2C=O)cc1`, the melting point is reported as 271 to 273 °C.

Compound `CN(C)S(=O)(=O)c1cccc(CCl)c1` has a melting point of 45 to 47 °C.

Work on `O=[N+]([O-])c1cc(Br)ccc1S` yielded a melting point of 123 to 125 °C.

Compound `c1ccc(-c2nnco2)cc1` has a melting point of 35 to 37 °C.

`O=C(O)C1(C(F)(F)F)CCN(Cc2ccccc2)C1` (centres undefined) showed a melting point of 210 to 212 °C.

With `NNC(=O)Nc1c(Cl)cc(Cl)cc1Cl` the melting point was 229 to 231 °C.

In the case of `N#CCCNS(=O)(=O)c1ccc(C(=O)O)cc1`, the melting point is reported as 240 to 242 °C.

Work on `Nc1cc(F)ccc1N1C(=O)C2CCCCC2C1=O` (centres undefined) yielded a melting point of 174 to 176 °C.

In the case of `Nc1cnn(-c2cnc3ccccc3n2)c1`, the melting point is reported as 169 to 171 °C.

With `NC(Cc1ccc2c(c1)OCO2)C(=O)O` (centres undefined) the melting point was 249 to 251 °C.

Compound `Cc1cc(N)n(C(=O)OC(C)(C)C)n1` has a melting point of 135 to 137 °C.

With `CCC(O)CNc1ccccc1` (centres undefined) the melting point was 48 to 50 °C.

Compound `Sc1nnnc2ccccc12` has a melting point of 183 to 185 °C.

In the case of `COc1ccc(C)cc1NCCC(=O)O`, the melting point is reported as 77 to 79 °C.

With `Cc1cc(N)n(-c2ccc(C(F)(F)F)cn2)n1` the melting point was 119 to 121 °C.
